According to patent publication US20240245654A1, “ADJUNCTIVE D-CYCLOSERINE AUGMENTATION OF TRANSCRANIAL MAGNETIC STIMULATION (TMS) THERAPY FOR MAJOR DEPRESSIVE DISORDER” (MCGRX CORP., priority 2021, published 2024):
“Also recorded” adds a separate entry of the source.

Legend:
[1] = tested on: motor cortex (MEP facilitation after iTBS); conditions: healthy participants, described elsewhere; cited from earlier work
[2] = tested on: suicidal ideation and suicide risk in MDD; experiment: RCT of iTBS+DCS in MDD: suicidal ideation and death-implicit association test; assay type: in vivo, human; conditions: iTBS+DCS vs iTBS+Placebo, listed as DCS
Text: Participants also completed a computerized neuropsychological test called the death-implicit association test that is associated with suicide attempts, both retrospectively and prospectively.

[3] = tested on: MDD-related cognitive impairment; experiment: RCT of iTBS+DCS in MDD: cognition (PDQ, THINC-it N-Back); assay type: in vivo, human; conditions: iTBS+DCS 100 mg vs iTBS+Placebo; listed as DCS
Method: The efficacy of 100 mg DCS as an adjunctive strategy to iTBS to reduce MDD-related cognitive impairment and/or improve cognition in MDD was be tested in the randomized controlled trial described in the above Example.
Participants completed the Cognitive Failures Questionnaire (CFQ31) and the Perceived Deficits Questionnaire (PDQ) as well as the THINC-it computerized neurocognitive battery at baseline and after treatment.

[4] = tested on: left primary motor cortex (iTBS synaptic plasticity); experiment: Repeated spaced iTBS of motor cortex, MEP and stimulus response curve, placebo-controlled crossover trial in healthy individuals (NCT05081986); assay type: in vivo, human; conditions: n=20 healthy, vs placebo
Method: Methods: This experiment was a pre-registered randomized, double-blind, placebo-controlled crossover trial (NCT05081986). Twenty healthy individuals were randomly assigned to one of two experimental arms of the crossover study: a) Placebo-D-cycloserine and b) D-cycloserine-placebo. In the placebo arm, participants received one oral dose of 100 mg microcrystalline cellulose one hour prior to iTBS. In the D-cycloserine 100 mg arm, participants received one oral dose of 100 mg D-cycloserine one hour before ITBS. Participants attended the laboratory on two occasions to complete both arms of the crossover design. Time of arrival was standardized across visits, and visits were separated by at least seven days.
All TMS pulses were delivered using a neuro-navigated MagPro stimulator (X100 system, MagVenture, Denmark) with a biphasic Cool-B70 figure-eight coil. […] The peak-to-peak amplitude of MEPs were recorded from two surface electromyographic (EMG) electrodes placed on the right first dorsal interosseous muscle (FDI), with the ground electrode placed on the right styloid process. […]
TMS was delivered to the left primary motor cortex to identify the area that, when stimulated, elicited the largest peak-to-peak FDI MEP amplitude (the hotspot). […] The resting motor threshold (RMT) was determined as the lowest stimulator output, which elicited peak-to-peak MEP amplitudes≥0.05 mV in 5/10 trials. […]

[5] = tested on: motor cortex (iTBS synaptic plasticity); experiment: Motor cortex iTBS, MEP and stimulus response curve, placebo-controlled crossover study in Major Depressive Disorder (NCT03937596); assay type: in vivo, human
[6] = tested on: neurite density at the iTBS target site; experiment: RCT of iTBS+DCS in MDD: NODDI diffusion MRI at iTBS target site; assay type: in vivo, human; conditions: iTBS+DCS treated participants; not in iTBS+Placebo; listed as DCS
Text: Neurite Density and Dispersion Orientation Index (NODDI)^32 is an MRI tool that provides a proxy measure of neurite morphology and arborization that has been validated against histology in model species^33,34. While more commonly applied to white matter, NODDI has discriminating power in cortical gray matter in both health and disease^35-37. Neurite density metrics reflect the volume within neurites, whereas orientation dispersion metrics capture the tortuosity or complexity of neural processes, both of which are affected in MDD.
In the randomized placebo-controlled trial discussed in the Example above, diffusion magnetic resonance data to quantify Neurite Density and Dispersion Orientation Index (NODDI)^32 were acquired using a 3T General Electric Discovery MR750 scanner at the Seaman Family MR Research Center. This method provides a proxy measure of histopathological features in brain white and gray matter to describe neurite morphology and arborization.

[7] = tested on: TMS-associated plasticity; conditions: low dose; cited from earlier work
tDCS plasticity = conditions: compared with tDCS alone; cited from earlier work
[8] = tested on: treatment resistant major depressive disorder (MDD); experiment: 4-week double-blind placebo-controlled RCT of iTBS+DCS in treatment resistant MDD: depression, CGI, anxiety, wellbeing outcomes; assay type: in vivo, human; conditions: for rate of clinical remission (MADRS≤10): iTBS+placebo 4.2%
Method: Methods: In this preregistered (NCT03937596) single site 4-week randomized double-blind placebo-controlled trial, fifty participants with treatment resistant MDD were randomized 1:1 to ITBS+Placebo or iTBS+D-Cycloserine (100 mg). Participants were asked to take the adjunct or placebo at least 60 minutes prior to daily iTBS treatments for the first two weeks, and iTBS continued without an adjunct for weeks three and four. We utilized a MagPro X100 stimulator (MagVenture, Denmark) and a COOL-B70 coil. Targeting of the left DLPFC involved surface anatomy and the Beam F3 method^30. Although anatomical and functional neuroimaging was collected as part of the study protocol, targeting utilizing surface anatomy was chosen to increase generalizability to clinical settings where neuroimaging derived targets are not feasible. This target was registered to either the participant's anatomical MRI or to a template brain for those who could not complete neuroimaging (Visor2, ANT Neuro, the Netherlands). Resting motor threshold (rMT) was determined using electromyographic (EMG) electrodes placed over the first dorsal interosseous muscle, with threshold determined as the stimulus intensity required to elicit a minimum of 5 out of 10 EMG responses of >50 uV.
Patients all received active-iTBS, consisting of a total of 600 pulses per session delivered in twenty trains of triplets at 50 Hz repeated at 5 Hz (2 s on 8 s off) at 80% rMT. Participants received daily treatments Monday through Friday for a total of 20 treatments.
The primary outcome was change in depressive symptoms as measured by the Montgomery Asberg Depression Rating Scale (MADRS) at the conclusion of treatment. Secondary outcomes included clinical response (≥50% improvement in MADRS), clinical remission (MADRS≤10), and clinical global impression (CGI).

N[C@@H]1CONC1=O [D-cycloserine]
facilitation of MEPs after iTBS [1]: blunted facilitation of MEPs | suicidal ideation [2]: rapid resolution of suicidal ideation; also recorded: greater reductions in suicidal ideation | death-implicit association test performance ([2]; persisted when controlling for depressive symptom improvement): showed improvement; also recorded: greater reductions in scores | objective cognitive function, N-Back task of working memory [3]: significantly greater improvements; also recorded: significant improvements | subjective cognitive function (Perceived Deficits Questionnaire) [3]: significantly greater improvements; also recorded: significant improvements | facilitation of MEP peak to peak amplitude after repeated spaced iTBS ([4]; 100 mg oral one hour before iTBS, two iTBS separated by an hour): not impacted | stimulus response curve change after iTBS ([4]; adjunctive 100 mg): significant and sustained facilitation | relationship between ΔAUC 90 min and ΔAUC NextDay of the SRC ([5]; D-cycloserine groups, placebo groups weak negative relationship): positively correlated; also recorded: positive relationship | MEP time course following iTBS ([5]; MDD participants n=12, 100 mg, vs placebo arm): did not impact | change in stimulus response curve the day following iTBS ([5]; MDD participants, 100 mg, compared with healthy-placebo and MDD-placebo): normalized | neurite density at the target site (NODDI) [6]: increased neurite density; also recorded: Neurite density increases | short-term facilitation with high-frequency rTMS [7]: increases short-term facilitation | duration of sustained plasticity with transcranial direct current stimulation (tDCS plasticity): more than 12 hours | OR of clinical response ([8]; 2 weeks, iTBS+DCS vs iTBS+placebo, 95% CI: 1.41-21.03): 5.45 | rate of clinical remission (MADRS≤10) ([8]; 2 weeks): 17.4% | rate of clinical response (≥50% improvement in MADRS) ([8]; 2 weeks, iTBS+placebo 16.7%): 52.2% | OR of clinical remission ([8]; 4 weeks, iTBS+DCS vs iTBS+placebo, 95% CI: 1.68-129.52): 14.78 | OR of clinical response ([8]; 4 weeks, iTBS+DCS vs iTBS+placebo, 95% CI: 1.91-24.77): 6.88 | rate of clinical remission (MADRS≤10) ([8]; 4 weeks): 39.1% | rate of clinical response (≥50% improvement in MADRS) ([8]; 4 weeks, iTBS+placebo 29.2%): 73.9% | change in depressive symptoms (MADRS scores) ([8]; iTBS+DCS 100 mg vs iTBS+Placebo, mITT, 4 weeks, listed as DCS): significant improvement in depressive symptoms; also recorded: greater reductions in depressive symptoms | MADRS mean difference, per treatment analyses ([8]; iTBS+DCS vs iTBS+Placebo, 2 weeks, 95% CI: 0.43-7.51): 3.97 | MADRS mean difference, per treatment analyses ([8]; iTBS+DCS vs iTBS+Placebo, 4 weeks, 95% CI: 2.66-11.52): 7.09 | Hedge's g (MADRS change) ([8]; iTBS+DCS vs iTBS+Placebo, 95% CI: 0.34-1.62): 0.99 | CGI-Improvement scores ([8]; iTBS+DCS vs iTBS+Placebo, at 2 weeks and 4 weeks, listed as DCS): greater improvements on the clinical global impression scale; also recorded: greater improvement | mean difference on the MADRS ([8]; iTBS+DCS vs iTBS+Placebo, mITT, baseline to 4 weeks, 95% CI: 2.43-9.88, p=0.001): 6.15 | CGI-severity scale ([8]; iTBS+DCS vs iTBS+Placebo, p=0.0014, listed as DCS): greater improvements in clinical global impression severity scores | visual analog scale for overall wellbeing ([8]; iTBS+DCS vs iTBS+Placebo, p=0.018, listed as DCS): greater improvements in overall wellbeing; also recorded: greater improvement | self-reported anxiety symptoms (GAD-7) ([8]; iTBS+DCS vs iTBS+Placebo, p=0.035, listed as DCS): greater improvements in anxiety; also recorded: greater improvement
